Source: PMC4579064 (Toxicology and applied pharmacology, 2015)

What was measured:
[1] = tested on: female Long-Evans rats; conditions: menadione 40 mg/kg ip 20 min after parathion 8 mg/kg oral
[2] = biological target: T1, CYP1A2 (Homo sapiens, UniProt P05177); assay: recombinant CYP activity with fluorogenic substrate
T1 sequence (P05177 2-516 limits assumed): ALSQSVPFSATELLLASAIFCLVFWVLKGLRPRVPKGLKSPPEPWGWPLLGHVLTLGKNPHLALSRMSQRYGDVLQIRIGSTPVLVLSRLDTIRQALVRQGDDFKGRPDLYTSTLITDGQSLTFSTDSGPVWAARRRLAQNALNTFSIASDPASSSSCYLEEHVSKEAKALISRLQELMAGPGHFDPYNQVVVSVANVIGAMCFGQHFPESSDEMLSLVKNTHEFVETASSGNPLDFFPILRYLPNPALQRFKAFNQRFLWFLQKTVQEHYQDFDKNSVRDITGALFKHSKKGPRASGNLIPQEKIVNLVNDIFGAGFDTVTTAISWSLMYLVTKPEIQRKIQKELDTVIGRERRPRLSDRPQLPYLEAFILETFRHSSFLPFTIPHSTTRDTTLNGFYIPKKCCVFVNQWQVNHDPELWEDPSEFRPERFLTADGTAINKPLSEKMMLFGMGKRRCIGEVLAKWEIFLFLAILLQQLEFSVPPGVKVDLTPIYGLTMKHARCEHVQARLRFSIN

[3] = biological target: T2, CYP1B1 (Homo sapiens, UniProt Q16678); assay: as above; format: biochemical
T2 sequence (Q16678 1-543): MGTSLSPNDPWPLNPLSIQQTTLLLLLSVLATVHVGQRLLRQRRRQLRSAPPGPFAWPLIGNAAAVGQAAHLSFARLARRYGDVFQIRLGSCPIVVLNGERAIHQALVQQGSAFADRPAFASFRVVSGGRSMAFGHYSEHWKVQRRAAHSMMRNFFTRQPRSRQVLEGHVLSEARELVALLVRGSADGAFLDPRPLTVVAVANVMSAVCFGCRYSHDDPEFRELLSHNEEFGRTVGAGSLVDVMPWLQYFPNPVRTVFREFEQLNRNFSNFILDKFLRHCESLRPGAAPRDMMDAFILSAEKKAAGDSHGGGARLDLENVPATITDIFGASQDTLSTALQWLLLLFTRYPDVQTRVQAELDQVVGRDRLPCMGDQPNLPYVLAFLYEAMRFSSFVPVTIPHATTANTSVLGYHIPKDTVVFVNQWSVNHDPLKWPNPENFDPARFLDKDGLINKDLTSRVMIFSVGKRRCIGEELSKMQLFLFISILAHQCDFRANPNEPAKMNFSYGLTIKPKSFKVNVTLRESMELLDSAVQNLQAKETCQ
T2 sequence (P16435 2-677 partner): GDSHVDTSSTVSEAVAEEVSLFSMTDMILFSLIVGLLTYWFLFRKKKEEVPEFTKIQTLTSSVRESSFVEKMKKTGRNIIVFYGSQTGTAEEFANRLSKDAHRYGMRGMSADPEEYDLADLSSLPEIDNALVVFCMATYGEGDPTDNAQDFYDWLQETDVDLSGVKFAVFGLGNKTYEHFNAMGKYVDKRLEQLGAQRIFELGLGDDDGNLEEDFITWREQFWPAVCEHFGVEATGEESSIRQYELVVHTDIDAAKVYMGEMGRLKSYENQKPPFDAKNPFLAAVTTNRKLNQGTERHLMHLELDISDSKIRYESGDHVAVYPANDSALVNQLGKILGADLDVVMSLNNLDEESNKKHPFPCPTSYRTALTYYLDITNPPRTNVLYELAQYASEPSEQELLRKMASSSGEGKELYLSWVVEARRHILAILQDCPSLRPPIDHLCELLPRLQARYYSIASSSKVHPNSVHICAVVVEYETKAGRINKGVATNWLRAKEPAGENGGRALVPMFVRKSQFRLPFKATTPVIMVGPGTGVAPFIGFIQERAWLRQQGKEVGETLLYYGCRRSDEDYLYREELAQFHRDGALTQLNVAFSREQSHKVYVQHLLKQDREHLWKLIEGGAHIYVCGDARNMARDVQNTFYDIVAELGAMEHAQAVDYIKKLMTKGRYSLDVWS

[4] = tested on: liver Ces; assay: liver carboxylesterase; format: in vivo, rat; conditions: menadione 20 min after parathion
[5] = biological target: CYP3A4 (Homo sapiens, UniProt P08684)
Sequence of CYP3A4 (P08684 2-503 limits assumed): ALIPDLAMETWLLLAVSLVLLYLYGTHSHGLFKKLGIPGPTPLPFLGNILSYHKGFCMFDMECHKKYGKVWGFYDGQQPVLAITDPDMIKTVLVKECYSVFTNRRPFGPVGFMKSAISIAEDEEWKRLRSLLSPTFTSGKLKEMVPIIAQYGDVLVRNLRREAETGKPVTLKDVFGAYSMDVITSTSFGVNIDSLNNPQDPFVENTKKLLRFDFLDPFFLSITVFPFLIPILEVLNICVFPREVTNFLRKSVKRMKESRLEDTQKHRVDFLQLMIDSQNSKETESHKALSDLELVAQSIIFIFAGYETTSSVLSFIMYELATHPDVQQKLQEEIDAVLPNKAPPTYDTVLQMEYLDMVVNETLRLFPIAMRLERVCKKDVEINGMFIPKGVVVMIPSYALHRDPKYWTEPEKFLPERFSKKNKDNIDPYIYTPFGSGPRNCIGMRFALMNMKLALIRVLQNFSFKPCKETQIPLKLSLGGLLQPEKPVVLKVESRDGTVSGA

[6] = biological target: T3, CYP1A1 (Homo sapiens, UniProt P04798); assay: recombinant CYP activity with fluorogenic substrate
T3 sequence (P04798 1-512): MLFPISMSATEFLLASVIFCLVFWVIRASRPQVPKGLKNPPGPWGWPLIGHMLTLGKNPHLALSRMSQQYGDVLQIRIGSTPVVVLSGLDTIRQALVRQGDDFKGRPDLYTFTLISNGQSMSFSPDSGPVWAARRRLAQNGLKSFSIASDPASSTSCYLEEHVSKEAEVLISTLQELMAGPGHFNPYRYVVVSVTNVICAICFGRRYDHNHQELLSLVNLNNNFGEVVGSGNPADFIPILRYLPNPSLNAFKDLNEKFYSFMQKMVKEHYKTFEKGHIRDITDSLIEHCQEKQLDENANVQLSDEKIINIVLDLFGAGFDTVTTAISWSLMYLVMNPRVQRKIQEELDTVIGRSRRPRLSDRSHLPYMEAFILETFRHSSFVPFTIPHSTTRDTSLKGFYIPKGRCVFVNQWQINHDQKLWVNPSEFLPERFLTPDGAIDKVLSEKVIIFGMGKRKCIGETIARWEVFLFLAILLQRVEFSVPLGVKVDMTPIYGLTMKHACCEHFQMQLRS
T3 sequence (P16435 2-677 partner): T2 sequence (P16435 2-677 partner)

[7] = tested on: brain ChE; assay: brain ChE activity in parathion-treated rats; format: in vivo, rat; conditions: parathion 8 mg/kg oral, menadione 40 mg/kg ip 20 min after parathion, 60 min
[8] = biological target: T1, CYP1A2

## CC1=CC(=O)c2ccccc2C1=O [menadione, 2-methylnaphthalene-1,4-dione]
[1]
  parathion toxicity (startle response, tremulous jaw movement, tremors and convulsions): marked reduction
[2]
  IC50: 4.51 ± 0.57 µM
[3]
  IC50: 7.02 ± 0.53 µM
[4]
  inhibition of liver Ces by parathion: reduced the inhibition
[5]
  paraoxon formation: marked decrease
[6]
  IC50: 4.39 ± 0.42 µM
[7]
  forebrain ChE inhibited: 11%
  hindbrain ChE inhibited: 17%
[8]
  paraoxon formation: marked decrease
